By EC50 is commonly meant the concentration needed to bring the measured effect to its halfway point. Lower therefore signals greater potency.

For the assay, the target named is Nicotinamide phosphoribosyltransferase (Homo sapiens, UniProt P43490). Nature of the assay: NMN Fluorescence Biochemical Assay. The procedure:
Human Recombinant Enzyme Assay: Compounds described herein were assayed for their ability to stimulate the synthesis of nicotinamide mononucleotide (NMN) by the enzyme NAMPT. The human recombinant enzyme assay measures the activation of the enzyme activity by compounds using recombinant enzyme and substrates in a buffered cell-free system. The assay conditions closely mimic cellular environments. Dose responses were measured using an assay to detect the formation of nicotinamide mono-nucleotide. All experiments were performed in the 384-well format. Generally, 0.5 μL of DMSO containing varying concentrations of the test compound was mixed with 10 μL of the enzyme reagent solution. Enzyme reactions were initiated with the addition of 10 μL of a solution containing the substrates. The final assay conditions were as follows: 6 nM human NAMPT, 2.5 mM ATP, […] in 50 mM HEPES, pH 7.2, 1 mM DTT, 1 mM CHAPS 50 mM NaCl, 100 mM MgCl2. Following an incubation of 60 min at ambient temperature, 10 μL of 20% acetophenone in DMSO was added, followed by 10 μL of 2 M KOH and 40 μL of formic acid. The plates were read for fluorescence (Excitation/Emission=355 nm/460 nm) using an EnVision plate reader after 40 mins of incubation at ambient temperature. […]

Sequence of Nicotinamide phosphoribosyltransferase (P43490 whole entry): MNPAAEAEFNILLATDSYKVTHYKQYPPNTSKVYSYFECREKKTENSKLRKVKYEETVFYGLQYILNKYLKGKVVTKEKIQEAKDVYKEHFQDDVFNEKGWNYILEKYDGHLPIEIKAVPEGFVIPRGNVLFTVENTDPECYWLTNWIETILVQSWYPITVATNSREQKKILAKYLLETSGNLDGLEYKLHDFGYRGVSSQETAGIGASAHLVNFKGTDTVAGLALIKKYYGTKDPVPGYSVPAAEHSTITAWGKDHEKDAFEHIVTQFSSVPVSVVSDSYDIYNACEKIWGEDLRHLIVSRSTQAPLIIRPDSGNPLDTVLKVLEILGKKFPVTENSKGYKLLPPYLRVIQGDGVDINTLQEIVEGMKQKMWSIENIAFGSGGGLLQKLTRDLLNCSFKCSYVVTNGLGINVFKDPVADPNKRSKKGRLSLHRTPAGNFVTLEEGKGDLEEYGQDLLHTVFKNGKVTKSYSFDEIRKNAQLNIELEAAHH

For the compound `Cc1nc(C(=O)N2CCN(Cc3ccccc3)C(=O)C2)nc(NCCc2cn[nH]c2)c1C` [US20240067631, Compound 45], the 50% effective concentration (EC50) was found to be 3.52 µM.
Turning to `Cc1ccc([C@@H](C)NC(=O)c2nc(C)c(C)c(NCCc3cn[nH]c3)n2)o1` [US20240067631, Compound 101], the 50% effective concentration (EC50) is 4.09 µM. The EC50 values of the last two compounds are within 1.5-fold of each other.

The record behind these values is BindingDB's records for patent US20240067631 (Cytokinetics, 2024).
